# Measurements reported in ChEMBL document CHEMBL1134853, “Essential structural factors of acetogenins, potent inhibitors of mitochondrial complex I” (Bioorg Med Chem Lett, 2002).
# Target: T1, NADH dehydrogenase [ubiquinone] 1 alpha subcomplex subunit 11 (Bos taurus, UniProt Q8HXG6)
# T1 sequence (Q8HXG6 whole entry): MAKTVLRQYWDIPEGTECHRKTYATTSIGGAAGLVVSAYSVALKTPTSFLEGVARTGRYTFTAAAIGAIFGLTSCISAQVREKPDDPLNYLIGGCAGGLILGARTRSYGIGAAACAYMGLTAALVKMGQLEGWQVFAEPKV
# Assay: Inhibitory activity against bovine heart mitochondrial NADH ubiquinone oxidoreductase (complex I)
row,SMILES,IC50
1,CCCCCCCCCC[C@@H](O)[C@H]1CC[C@H]([C@H]2CC[C@H]([C@H](O)CCCCCCCCCCCCC3=C[C@H](C)OC3=O)O2)O1 [ISODESAACETYLUVARICIN],0.9 nM
2,C[C@H]1C=C(CCCCCCCCCCCC[C@@H](O)[C@H]2CC[C@H]([C@H]3CC[C@H]([C@@H](C)O)O3)O2)C(=O)O1,3.1 nM
